Consider four molecules from patent US7498436B2, “Substituted hydroxyethylamines” (Pharmacia & Upjohn Company LLC, priority 2002, dated 2009).

Molecule `CCCN(CCC)C(=O)c1cc(C(=O)N[C@@H](Cc2cc(F)cc(F)c2)[C@H](O)CNCc2cccc(OC)c2)cc(-c2ccccc2)c1.Cl` showed a melting point of 230 to 233 °C.
Under `CCCN(CCC)C(=O)c1cc(C(=O)N[C@@H](Cc2ccccc2)[C@H](O)CNCc2cccc(OC)c2)cc(-c2ccc(OC)cc2)c1.Cl` stands 205 to 209 °C.
Under `CCCN(CCC)C(=O)c1cc(C(=O)N[C@@H](Cc2ccccc2)[C@H](O)CNCc2cccc(OC)c2)cc(-c2ccsc2)c1.Cl` stands 199 to 201 °C.
With `CCCN(CCC)C(=O)c1cc(C(=O)N[C@@H](Cc2ccccc2)[C@H](O)CNCc2cccc(OC)c2)cc(-c2ccccc2)c1.Cl` the figure was 214 to 219 °C.

The melting point is the temperature, or range, at which the solid turns liquid.
